Experiment [1] concerns MDR clinical isolates of K. pneumoniae, E. coli, A. baumannii, P. aeruginosa, E. faecium and MRSA. Put plainly: MIC by broth microdilution against different types and strains of MDR clinically isolated bacteria. The class given is cell-based. Particulars: Gram-negative and Gram-positive MDR clinical isolates.
Description: The MICs of the guanidinium functionalized polymers and the respective antibiotics against the clinical isolates were measured via the broth microdilution method. In accordance with the broth microdilution method, the MDR microbes including one or more strains of K. pneumoniae, E. coli, A. baumannii, P. aeruginosa, E. coli, E. faecium, and MRSA were harvested in mid exponential growth phase after grown overnight in Mueller-Hinton (MH) agar plates at 37° C. The antimicrobial agents were prepared in MH broth (MHB) at various concentrations. The bacteria suspensions were then diluted with phosphate-buffer saline (PBS, PH 7.4) to adjust the turbidity approximately to the Standard McFarland 0.6, which corresponds to the concentration of 1×10^8 colony-forming unit (CFU)/mL, after which the bacteria suspension was further diluted by 100-fold with MHB (1×10^6 CFU/mL). Subsequently, equal volumes (100 microliters (μL)) of bacterial suspension and agent solution prepared previously were mixed in each well of a 96-well plate and incubated for 18 h at 37° C. Broth containing bacteria alone was employed as the negative control, and each MIC was tested in triplicate.
To facilitate comparison, imipenem and vancomycin, typical first-line therapies against Gram-negative and Gram-positive pathogens, were employed as standards or control antibiotics.
For experiment [2], the system named is K. pneumoniae 9170. Put plainly: Resistance development by serial passaging at sub-lethal concentrations. In kind it is cell-based, Klebsiella pneumoniae. As to the method: To test bacterial resistance and resistance prevention, a sub-lethal dose (so as to not kill all bacteria) of the respective antimicrobials was repeatedly applied to K. pneumoniae samples for 24 hours at each passage, wherein the bacteria were allowed to replicate and/or mutate. MIC values of the respective antimicrobials were then measured after each repetition to monitor MIC changes. An increase in MIC value indicates development of resistance in the bacteria. In particular, samples of K. pneumoniae 9170 bacteria were first exposed to the respective antimicrobials (e.g., All polymers having Structures I, IV and V, imipenem and levofloxacin) for the determination of MICs as described above. Subsequently, 50 μL of bacteria from wells of 0.5×MIC were harvested and grown overnight, and then subjected to MIC determination for up to 20 similar serial passages (e.g., 20 single applications once a day for 20 days).
Unfortunately, antibiotic resistance has raised a global concern over the past few years.

Experiment [3] relates to K. pneumoniae 9170. Put plainly: In vivo efficacy (ED50/ED95) in bacteria-caused lung infection mouse model. Details: species or system mice. Particulars: Klebsiella pneumoniae, 9170, ip.
Description: In this regard, immunosuppressed mice (7 weeks old) were used for the following in vivo studies. Immunosuppression was induced by intraperitoneal injection of 200 mg/kg cyclophosphamide 4 days prior to infection. The mice were anesthetized by intraperitoneal injection of 1% pentobarbital (40 mg/kg, Sigma). The mice were then infected with K. pneumoniae 9170 to determine the minimum lethal dose for subsequent effective does and efficacy testing. Overnight cultures of K. pneumoniae 9170 were harvested and suspended in PBS. Subsequently, the cyclophosphamide-pretreated mice were intranasally injected with 25.0 μL of the bacterial suspension at designated doses (e.g., 1.0×10^8, 2.5×10^8, 5×10^8, 1.0×10^9, 2.0×10^9 CFU/mL, six mice per group). The minimum lethal dose (LD), the lowest concentration sufficient to cause 100% mortality, was determined from the survival rate of mice at 5 days post-infection by the BLISS method.
The effective doses ED50 and ED95 doses of the respective polymers and imipenem for comparison, were tested using a bacteria-caused lung infection mouse model as follows. Firstly, a bacterial suspension with the minimum lethal dose (25.0 μL) was introduced to the above described cyclophosphamide-pretreated mice intranasally. […] The number of surviving mice in each group was recorded for 5.0 day to estimate ED50 and ED95 via the BLISS method.

As for `CN[C@H](CC(C)C)C(=O)N[C@H]1C(=O)N[C@@H](CC(N)=O)C(=O)N[C@H]2C(=O)N[C@H]3C(=O)N[C@H](C(=O)N[C@H](C(=O)O)c4cc(O)cc(O)c4-c4cc3ccc4O)[C@H](O)c3ccc(c(Cl)c3)Oc3cc2cc(c3O[C@@H]2O[C@H](CO)[C@@H](O)[C@H](O)[C@H]2O[C@H]2C[C@](C)(N)[C@H](O)[C@H](C)O2)Oc2ccc(cc2Cl)[C@H]1O` [vancomycin], in experiment [1], the “spectrum of antibacterial activity” value was “only demonstrated efficacy against Gram-positive strains”.
For the compound `C[C@@H](O)[C@H]1C(=O)N2C(C(=O)O)=C(SCCN=CN)C[C@H]12` [imipenem], the “increase of MIC” value with K. pneumoniae 9170 [2] (by the 11th passage) turned out to be 2 times; with K. pneumoniae 9170 [2] (by the 20th passage) it was 4 fold. Also, the 50% effect level with K. pneumoniae 9170 [3] (ED50) was put at a dose of 5.93 mg/kg.
In the case of `C[C@H]1COc2c(N3CCN(C)CC3)c(F)cc3c(=O)c(C(=O)O)cn1c23` [levofloxacin], the “increase of MIC” value in the experiment with K. pneumoniae 9170 [2] (by the 7th passage) was found to be 2 times; with K. pneumoniae 9170 [2] (by the 20th passage), 16 fold.

Source of the values: patent publication US10995177B2 (priority 2018, dated 2021).
